Assay results reported in patent publication US20210246120A1, “METHOD OF PREPARATION AND USE OF PHOSPHOINOSITIDE 3-KINASE INHIBITORS IN TREATING CANCER” (BIOMEDICAL RESEARCH FOUNDATION OF THE ACADEMY OF ATHENS …, priority 2018, published 2021).
Like-named read-outs stand apart in the source and are kept apart here.

Key:
[1] = target: T1, mutant PI3Kα H1047R protein (Homo sapiens, UniProt P42336, H1047R); assay: In vitro cell-free PI3Kα activity assay using PIP2 containing liposomes (H1047R mutant); type: biochemical; conditions: for Inhibition selectivity for mutant PI3Kα H1047R compared to wild-type PI3Kα: ratio of IC50 WT / H1047R; for IC50: logit-log plots, PIP2 liposomes
T1 construct: purchased Millipore
Experimental: PI3Kα activity assays on the identified lead compound and its analogs were performed using PIP2 containing liposomes (Gkeka et al., PLoS Comput Biol 10:e1003895 (2014)). Complexes of PIK3CA (WT or […])/PIK3R1 were obtained from Millipore. The assay was based on a protocol provided by Millipore, with modifications (Papafotika et al., in preparation) which will be further described below. In this assay, PIP3 molecules produced by PI3Kα compete with biotinylated PIP3 for binding with a recombinant GST-GRP1-PH domain (amino acids 263-380), which has been produced in bacteria, bound to glutathione coated 96-well plates. Quantitation of the competed amount of biotin-PIP3 is estimated by the peroxidase activity of streptavidin-HRP that binds to the plate and provides a measure for the activity of the protein. The compounds were preincubated with all the components of the assay mixture, except PIP2, for 10 min, at 25° C. PIP2 is added in the end of the preincubation period, thereby initiating the kinase reaction. IC50 values were calculated from dose-response curves using logit-log plots. All assays were carried out in at least three independent experiments and each concentration in triplicate. PIK-108 and wortmannin were used as controls (Gkeka et al., J Phys Chem B 119:1002-1016 (2015)).
To evaluate the in vitro activity of the compound having the formula (II) (PI3K-010), PI3Kα activity assays were performed using PIP2 containing liposomes (Gkeka et al PLOS Comp Biol 2014). In this assay, PIP3 molecules produced by PI3Kα compete with biotinylated PIP3 for binding to recombinant GST-GRP1-PH domain (amino acids 263-380), which has been produced in bacteria, bound to glutathione coated 96-well plates. Quantitation of the competed amount of biotin-PIP3 is estimated by the peroxidase activity of streptavidin-HRP that binds to the plate and provides a measure for the activity of the protein. The compounds were preincubated with all the components of the assay mixture, except PIP2, for 10 min, at 25° C. […]
(§1) To evaluate the in vitro activity of the compound having the formula (III) (PI3K-010), PI3Kα activity assays were performed using PIP2 containing liposomes (Gkeka et al PLOS Comp Biol 2014). […] Quantitation of the competed amount of biotin-PIP3 is estimated by the peroxidase activity of streptavidin-HRP that binds to the plate and provides a measure for the activity of the protein. […]
as §1, with “(IV) (PI3K-024),” for “(III) (PI3K-010),”

[2] = tested on: breast cancer in WAPCre/exon20 Pik3ca*/MMTV-Myc mouse; assay: Micro PET/CT imaging and Ki67 immunohistochemistry of breast tumors in WAPCre/exon20 Pik3ca*/MMTV-Myc mouse; type: in vivo
Excerpt: In order to test the in vivo activity of potential anticancer drugs, establishing a corresponding cancer animal model is required. To generate mouse tumors at chosen anatomical sites, a variant of a genetic scheme that is based on Cre/loxP recombination is often used. Depending on the tissue-specificity of the promoter driving Cre expression, corresponding tumors develop in progeny derived from matings between Cre-producer mice and Cre-responder partners carrying a dormant oncogenic transgene, which becomes functional after excision of an upstream-positioned floxed DNA segment that blocks its expression [see Politi et al. Oncogene 23:1558-1565 (2004); Klinakis et al. Proc Natl Acad Sci USA 106:2359-2364 (2009), Stratikopoulos et al. Cancer Cell 27:837-851 (2015)). To develop mouse strains carrying Pik3ca gain of function mutations (hereafter referred to as Pik3ca*), a knock-in gene targeting strategy was followed (Stratikopoulos et al. Cancer Cell 27:837-851 (2015)). Thus, either of the two hotspot mutations of the Pik3ca locus (in exon 20 or in exon 9) was targeted so that the mutated Pik3ca would be expressed from the endogenous locus and not from a transgene, thus, mimicking the expression found in human tumors. Activation of the exon 20 Pik3ca oncogenic mutation was achieved after mating the animals with WAPCre producers (WAP is a milk protein, the promoter of which is used for driving Cre expression, specifically in the mammary gland). Mammary tumors appeared in such animals after a very long latency of 490 days (median). […] These mice were used to test the efficacy of compounds discussed herein.
FIG. 6. Example of micro PET/CT imaging of WAPCre/exon20 Pik3ca*/MMTV-Myc mouse (compared with a negative wild-type control) at the beginning and end of treatment (one month) of breast cancer with the PI3K-010 compound.
PET/CT images of a WAPCre/exon20 Pik3ca*/MMTV-Myc mouse were acquired at the beginning and end of treatment ([…]) of breast cancer with the PI3K-010 compound (cf. FIG. 6). The compound was administered per os (by gavage) at 100 mg/Kg doses. […]

wild type PI3Kα protein = target: T2, wild type PI3Kα protein (Homo sapiens, UniProt P42336); assay: In vitro cell-free PI3Kα activity assay using PIP2 containing liposomes (wild type); type: biochemical
T2 construct: purchased Millipore
T2 sequence (P42336 whole entry): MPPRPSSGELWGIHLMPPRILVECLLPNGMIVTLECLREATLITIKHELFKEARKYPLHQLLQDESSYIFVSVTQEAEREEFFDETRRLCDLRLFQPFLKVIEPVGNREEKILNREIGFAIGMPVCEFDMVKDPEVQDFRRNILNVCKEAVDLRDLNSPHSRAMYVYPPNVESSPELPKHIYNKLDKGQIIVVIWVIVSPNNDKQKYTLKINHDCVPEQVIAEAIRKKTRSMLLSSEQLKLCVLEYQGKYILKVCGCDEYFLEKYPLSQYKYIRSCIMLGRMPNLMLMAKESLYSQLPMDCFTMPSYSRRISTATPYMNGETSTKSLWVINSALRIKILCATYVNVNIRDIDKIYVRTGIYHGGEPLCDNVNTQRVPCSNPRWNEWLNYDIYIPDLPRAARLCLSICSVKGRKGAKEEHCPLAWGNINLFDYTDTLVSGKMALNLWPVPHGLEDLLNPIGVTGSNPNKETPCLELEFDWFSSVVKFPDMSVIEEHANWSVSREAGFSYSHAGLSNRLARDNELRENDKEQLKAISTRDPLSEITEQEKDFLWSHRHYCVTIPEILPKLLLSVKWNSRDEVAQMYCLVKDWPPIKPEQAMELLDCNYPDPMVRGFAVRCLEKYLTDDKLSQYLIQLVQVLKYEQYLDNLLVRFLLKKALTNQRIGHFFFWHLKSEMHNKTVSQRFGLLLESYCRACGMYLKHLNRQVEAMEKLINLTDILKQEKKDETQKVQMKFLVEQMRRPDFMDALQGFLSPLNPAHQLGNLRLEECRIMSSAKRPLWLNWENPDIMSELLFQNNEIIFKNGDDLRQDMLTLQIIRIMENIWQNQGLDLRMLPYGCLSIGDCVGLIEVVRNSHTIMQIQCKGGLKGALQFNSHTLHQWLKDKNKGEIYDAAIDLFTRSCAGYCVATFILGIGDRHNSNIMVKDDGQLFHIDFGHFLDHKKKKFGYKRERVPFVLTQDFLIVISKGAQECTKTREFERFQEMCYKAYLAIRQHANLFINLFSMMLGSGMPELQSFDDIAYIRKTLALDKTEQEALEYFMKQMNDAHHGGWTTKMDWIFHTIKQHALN
T2 sequence (P27986 whole entry partner): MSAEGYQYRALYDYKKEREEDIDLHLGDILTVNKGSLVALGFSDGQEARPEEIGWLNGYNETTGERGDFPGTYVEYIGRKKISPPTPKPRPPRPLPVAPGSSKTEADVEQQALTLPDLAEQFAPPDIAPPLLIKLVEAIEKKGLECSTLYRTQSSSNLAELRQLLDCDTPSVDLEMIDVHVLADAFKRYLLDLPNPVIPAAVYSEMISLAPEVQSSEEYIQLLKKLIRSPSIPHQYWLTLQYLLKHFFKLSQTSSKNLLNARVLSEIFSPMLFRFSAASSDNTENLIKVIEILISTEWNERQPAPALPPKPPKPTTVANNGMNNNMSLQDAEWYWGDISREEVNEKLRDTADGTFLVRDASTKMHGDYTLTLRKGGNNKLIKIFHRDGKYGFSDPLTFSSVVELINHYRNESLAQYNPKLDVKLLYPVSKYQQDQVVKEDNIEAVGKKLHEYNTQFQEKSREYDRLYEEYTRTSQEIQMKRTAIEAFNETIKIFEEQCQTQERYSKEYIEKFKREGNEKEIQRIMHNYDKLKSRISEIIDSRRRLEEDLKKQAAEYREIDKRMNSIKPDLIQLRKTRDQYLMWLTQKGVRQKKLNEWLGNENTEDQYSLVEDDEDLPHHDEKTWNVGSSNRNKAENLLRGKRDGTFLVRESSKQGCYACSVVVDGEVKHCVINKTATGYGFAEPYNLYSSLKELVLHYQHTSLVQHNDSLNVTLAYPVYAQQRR

T1 sequence (P42336 whole entry H1047R): as the sequence (P42336 whole entry) above, with H1047R counted along it
T1 sequence (P27986 whole entry partner): as the sequence (P27986 whole entry partner) above

| Inhibition selectivity for mutant PI3Kα H1047R compared to wild-type PI3Kα [1] [fold] | IC50 ([1]; read-out: IC50 for the mutant H1047R PI3Kα) [µM] | IC50 (wild type PI3Kα protein; extrapolated, very low inhibition at the highest tested concentrations, read-out: IC50 for the WT PI3Kα, estimated by extrapolation) [µM] | IC50 ([1]; 100 μM ATP, read-out: IC50 against mutant H1047R PI3Kα) [µM] | IC50 (wild type PI3Kα protein; logit-log plots, 100 μM ATP, PIP2 liposomes, read-out: IC50 against WT PI3Kα) [µM] | SMILES | Proliferation index (Ki67 immunohistochemistry) after treatment ([2]; 100 mg/Kg per os by gavage, surgically removed breast tumors, controls 69.9+5.1%) | Uptake of 18F-FDG by remnants of breast cancer (PET/CT) ([2]; 100 mg/Kg per os, beginning vs end of treatment (two weeks)) | Immunohistochemical analysis: tumor necrosis after treatment ([2]; 100 mg/Kg per os, in comparison with the controls) |
| --- | --- | --- | --- | --- | --- | --- | --- | --- |
| 11 |  |  |  |  | c1cc(CSc2nc3ccccc3[nH]2)nc(CSc2nc3ccccc3[nH]2)c1 [PI3K-010, 2,6-bis(((1H-benzo[d]imidazol-2-yl)thio)methyl)pyridine] | 15.0+3.3% | diminished uptake | tumor necrosis |
| > 100 | 13.5 | > 1000 |  |  | O=C(NCc1ccccc1)c1cccc(C(=O)NCc2ccccc2)n1 [PI3K-021, N^2,N^6-dibenzylpyridine-2,6-dicarboxamide] |  |  |  |
|  |  |  | 0.064 | 0.006 | O=C(Nc1cccc(O)c1)c1cccc(C(=O)Nc2cccc(O)c2)n1 [PI3K-024, N^2,N^6-bis(3-hydroxyphenyl)pyridine-2,6-dicarboxamide] |  |  |  |
